In patent US20240199571A1, “THIOPHENE COMPOUND AND APPLICATION THEREOF” (MEDSHINE DISCOVERY INC., priority 2021, published 2024):
Counter-ions that a name gives are not always drawn.

Legend:
[1] = tested on: NCI-H1417 cells; assay: Experiment 2: inhibition of NCI-H1417 cell proliferation (CellTiter-Glo, 10 days); type: cell-based; details: Homo sapiens, 240 h, 10 days incubation
Method: Experiment 2: Evaluation of Inhibitory Activity on NCI-H1417 Cell Proliferation
Experimental purpose: To test the inhibitory activity of test compounds on NCI-H1417 cell proliferation.
Experimental materials: RPMI 1640 medium, fetal bovine serum, Promega CellTiter-Glo reagent. The NCI-H1417 cell line was purchased from ATCC. Envision multilabel plate reader (PerkinElmer).
Experimental method: The compounds were dissolved to 10 mM and 5-fold diluted with DMSO in the compound plates, starting with a concentration of 2 mM. 3-fold serial dilution was performed with Bravo to 10 concentrations. Then 250 nL of the compound solution was transferred to the upper and lower double duplicate wells of a blank 384 cell plate with Echo. To each well containing the transferred 250 nL of DMSO/compound was added a cell suspension of 1000 cells/50 μL per well, and the compound was diluted 200-fold, i.e., resulting in an initial working concentration of 10 μM. The cell plate was incubated in a carbon dioxide incubator for 10 days. To the cell plate was added 25 μL of Promega CellTiter-Glo reagent per well and the mixture was shaken for 10 minutes at room temperature to stabilize the luminescence signal. Readings were performed on a PerkinElmer Envision multilabel plate reader.
Data analysis: Raw data were converted into inhibition rate using the formula: (Max−Ratio)/(Max−Min)*100%. The IC50 values could then be derived from four-parameter curve fitting. (derived from 205 mode in XLFIT5, iDBS)
The compounds were tested for inhibitory activity of compounds on NCI-H1417 cell proliferation, and the results are shown in Table 3.

[2] = target: human LSD1 (Homo sapiens (Human), UniProt O60341); assay: Experiment 1B: in vitro LSD1 enzyme activity, enzyme-coupled fluorescence (HRP/Amplex Red), H3(1-21)K4me2 peptide 10 μM (Reaction Biology); type: biochemical; details: histone H3(1-21)K4me2 peptide 10 μM
Method: Experiment 1B: Evaluation of Enzyme Activity
Testing unit: Reaction Biology Corp., USA.
The purpose of the assay was to test the in vitro inhibitory activity of the compounds against LSD1. The enzyme used in the assay was human LSD1, and the standard substrate was histone H3(1-21)K4me2 peptide (10 μM). The activity of the compounds was determined by the enzyme-coupling fluorescent method by the combined detection of H2O2 generated after the reaction of LSD1 by horseradish peroxidase (HRP) and the fluorescent reagent Amplex Red. Starting from 10 μM, the compounds were 3-fold diluted to detect the IC50 values of the compounds at 10 concentrations. The enzyme and substrate were incubated for 30 minutes before the compound was added to the substrate to start the reaction. Fluorescence detector: EnVision, excitation wavelength: Ex/Em=535/590 nM.

| Compound | IC50 [1] [nM] | IC50 [2] [nM] |
| --- | --- | --- |
| Cn1nnc2cc(-c3sc(C(=O)N4C5CCC4C(N)C5)cc3-c3ccc(C#N)c(F)c3)ccc21 (stereo not drawn) [Compound 14] | 0.54 | 5.37 |
| COc1ccc(-c2sc(C(=O)N3CCCN(CC#N)CC3)cc2-c2ccc(C#N)c(F)c2)cc1F [Compound 40] | 18.7 | 95.6 |
| CC(C)(O)c1ccc(-c2sc(C(=O)N3CCC[C@@H](N)C3)cc2-c2ccc(C#N)c(F)c2)cc1 [Compound 50] | 9.19 | 28.3 |
| CC(C)(O)Cn1ncc2cc(-c3sc(C(=O)N4CCC[C@@H](N)C4)cc3-c3ccc(C#N)c(F)c3)ccc21 [Compound 57] | 1.53 | 10.4 |
| CC(C)(O)Cn1cc2cc(-c3sc(C(=O)N4CCC[C@@H](N)C4)cc3-c3ccc(C#N)c(F)c3)ccc2n1 [Compound 58] | 3.56 | 20.4 |
| CC(C)(O)Cn1ncc2cc(-c3sc(C(=O)N4CCC[C@@H](N)C4)cc3-c3ccc(C#N)c(F)c3)cnc21 [Compound 60] | 2.36 | 18.4 |
| N#Cc1ccc(-c2cc(C(=O)N3CCC[C@@H](N)C3)sc2-c2ccc3nccn3c2)cc1F [Compound 74] |  | 33.2 |
| N#Cc1ccc(-c2cc(C(=O)N3CCC[C@@H](N)C3)sc2-c2ccn3nccc3c2)cc1F [Compound 75] | 28 | 28.9 |
| N#Cc1ccc(-c2cc(C(=O)N3CCC[C@@H](N)C3)sc2-c2ccn3cncc3c2)cc1F [Compound 78] |  | 47.4 |
| N#Cc1ccc(-c2cc(C(=O)N3CCC[C@@H](N)C3)sc2-c2ccn3ccnc3c2)cc1F [Compound 84] | 25.9 | 13.2 |
| CN[C@@H]1CCCN(C(=O)c2cc(-c3ccc(C#N)c(F)c3)c(-c3ccc(N4CC(C)(O)C4)cc3)s2)C1 [Compound 122] | 9.83 | 13.1 |
| COc1ccc(-c2sc(C(=O)N3CCC[C@H](N)C3)cc2-c2ccc(C#N)c(F)c2)cc1F [Hydrochloride of compound 18] | 18.2 | 6.6 |
| COc1ccc(-c2sc(C(=O)N3CC[C@H](F)[C@@H](N)C3)cc2-c2ccc(C#N)c(F)c2)cc1F [Hydrochloride of compound 19] |  | 64.8 |
| COc1ccc(-c2sc(C(=O)N3CC[C@@H](F)[C@@H](N)C3)cc2-c2ccc(C#N)c(F)c2)cc1F [Hydrochloride of compound 20] | 32.3 | 19.4 |
| COc1ccc(-c2sc(C(=O)N3CCC[C@@H](N)C3)cc2-c2ccc(C#N)c(F)c2)c(F)c1 [Hydrochloride of compound 21] | 6.83 | 19.4 |
| COc1ccc(-c2sc(C(=O)N3CCC4(CC3)COCC4N)cc2-c2ccc(C#N)c(F)c2)cc1F (stereo not drawn) [Hydrochloride of compound 23] |  | 76.8 |
| COc1ccc(-c2sc(C(=O)N3CCC(N(C)C)C3)cc2-c2ccc(C#N)c(F)c2)cc1F (stereo not drawn) [Hydrochloride of compound 24] | 30.6 | 70.9 |
| COc1ccc(-c2sc(C(=O)N3CCCNCC3C)cc2-c2ccc(C#N)c(F)c2)cc1F (stereo not drawn) [Hydrochloride of compound 25] |  | 63.9 |
| COc1ccc(-c2sc(C(=O)N3CCCC(N(C)C)C3)cc2-c2ccc(C#N)c(F)c2)cc1F (stereo not drawn) [Hydrochloride of compound 26] | 6.87 | 19.6 |
| COc1ccc(-c2sc(C(=O)N[C@@H]3CCNC3)cc2-c2ccc(C#N)c(F)c2)cc1F [Hydrochloride of compound 27] |  | 48.2 |
| COc1ccc(-c2sc(C(=O)N3CCNC(C)CC3)cc2-c2ccc(C#N)c(F)c2)cc1F (stereo not drawn) [Hydrochloride of compound 29] | 17.2 | 29.7 |
| N#Cc1ccc(-c2cc(C(=O)N3CCC[C@@H](N)C3)sc2-c2ccc3[nH]c(=O)oc3c2)cc1F [Hydrochloride of compound 31] | 11.3 | 26.7 |
| N#Cc1ccc(-c2cc(C(=O)N3CCC[C@@H](N)C3)sc2-c2ccnc(N)c2)cc1F [Hydrochloride of compound 33] | 16.2 | 38 |
| Cn1c(=O)oc2ccc(-c3sc(C(=O)N4CCC[C@@H](N)C4)cc3-c3ccc(C#N)c(F)c3)cc21 [Hydrochloride of compound 34] | 9.92 | 36.5 |

| Compound | IC50 [1] [nM] | IC50 [2] [nM] |
| --- | --- | --- |
| CN1Cc2ccc(-c3sc(C(=O)N4CCC[C@@H](N)C4)cc3-c3ccc(C#N)c(F)c3)cc2C1=O [Hydrochloride of compound 35] | 8.84 | 24.6 |
| N#Cc1ccc(-c2cc(C(=O)N3CCC[C@@H](N)C3)sc2-c2ccc3c(c2)OCO3)cc1F [Hydrochloride of compound 37] | 0.93 | 1.73 |
| CS(=O)(=O)c1ccc(-c2sc(C(=O)N3CCC[C@@H](N)C3)cc2-c2ccc(C#N)c(F)c2)cc1 [Hydrochloride of compound 44] | 8.87 | 70.6 |
| CC(C)S(=O)(=O)c1ccc(-c2sc(C(=O)N3CCC[C@@H](N)C3)cc2-c2ccc(C#N)c(F)c2)cc1 [Hydrochloride of compound 47] | 10.2 | 48.8 |
| N#Cc1ccc(-c2cc(C(=O)N3CCC[C@@H](N)C3)sc2-c2ccc(N)nc2)cc1F [Hydrochloride of compound 49] |  | 101 |
| Cn1cc(-c2sc(C(=O)N3CCC[C@@H](N)C3)cc2-c2ccc(C#N)c(F)c2)cn1 [Hydrochloride of compound 52] |  | 251 |
| N#Cc1ccc(-c2cc(C(=O)N3CCC[C@@H](N)C3)sc2-c2ccc3n[nH]cc3c2)cc1F [Hydrochloride of compound 63] | 28.6 |  |
| N#Cc1ccc(-c2cc(C(=O)N3CCC[C@@H](N)C3)sc2-c2ccc3nn(C4CCOCC4)cc3c2)cc1F [Hydrochloride of compound 64] | 16.2 | 29.6 |
| Cn1cc2ccc(-c3sc(C(=O)N4CCC[C@@H](N)C4)cc3-c3ccc(C#N)c(F)c3)cc2n1 [Hydrochloride of compound 65] | 11.1 |  |
| N#Cc1ccc(-c2cc(C(=O)N3CCC[C@@H](N)C3)sc2-c2ccc3ncncc3c2)cc1F [Hydrochloride of compound 66] |  | 73.4 |
| Cc1c2cc(-c3sc(C(=O)N4CCC[C@@H](N)C4)cc3-c3ccc(C#N)c(F)c3)ccc2nn1C [Hydrochloride of compound 71] | 0.64 |  |
| N#Cc1ccc(-c2cc(C(=O)N3CCC[C@@H](N)C3)sc2-c2ccc3nn(C4CCOC4)cc3c2)cc1F (stereo partly drawn) [Hydrochloride of compound 72] | 4.47 | 8.56 |
| N#Cc1ccc(-c2cc(C(=O)N3CCC[C@@H](N)C3)sc2-c2ccc3nn(CC4(O)CCC4)cc3c2)cc1F [Hydrochloride of compound 79] | 3.32 | 13.6 |
| N#Cc1ccc(-c2cc(C(=O)N3CCC[C@@H](N)C3)sc2-c2ccc(N3CCC(O)C3)cc2)cc1F (stereo partly drawn) [Hydrochloride of compound 85] | 2.32 | 14.2 |
| N#Cc1ccc(-c2cc(C(=O)N3CCC[C@@H](N)C3)sc2-c2cc3nnn(CC4(O)CCC4)c3c(F)c2F)cc1F [Hydrochloride of compound 92] | 0.43 | 9.81 |
| N#Cc1ccc(-c2cc(C(=O)N3CCC[C@@H](N)C3)sc2-c2cc3cn(CC4(O)CC4)nc3cc2F)cc1F [Hydrochloride of compound 93] | 4.11 | 18 |
| CN(C)[C@@H]1CCCN(C(=O)c2cc(-c3ccc(C#N)c(F)c3)c(-c3ccc4nn(C(C)(C)CO)cc4c3)s2)C1 [Hydrochloride of compound 105] | 6.14 |  |
| CN(C)[C@@H]1CCCN(C(=O)c2cc(-c3ccc(C#N)c(F)c3)c(-c3cc4nnn(CC(C)(C)O)c4c(F)c3F)s2)C1 [Hydrochloride of compound 106] | 0.19 |  |
| CN[C@@H]1CCCN(C(=O)c2cc(-c3ccc(C#N)c(F)c3)c(-c3ccc(N4CC[C@H](O)C4)cc3)s2)C1 [Hydrochloride of compound 108] | 2.11 |  |
| CN[C@@H]1CCCN(C(=O)c2cc(-c3ccc(C#N)c(F)c3)c(-c3ccc(N4CC[C@@H](O)C4)cc3F)s2)C1 [Hydrochloride of compound 113] | 3.98 |  |
| N#Cc1ccc(-c2cc(C(=O)N3CCC[C@@H](N)C3)sc2-c2ccc(N3CC[C@H](O)C3)cc2F)cc1F [Hydrochloride of compound 114] | 5.18 |  |
| CN[C@@H]1CCCN(C(=O)c2cc(-c3ccc(C#N)c(F)c3)c(-c3ccc(N4CC[C@H](O)C4)cc3F)s2)C1 [Hydrochloride of compound 115] | 1.94 |  |
| N#Cc1ccc(-c2cc(C(=O)N3CCCNCC3)sc2-c2ccc(N3CC[C@H](O)C3)cc2)cc1F [Hydrochloride of compound 116] |  | 9.27 |
